Data on three molecules can be found in patent US9228020B2, “Compositions and methods for diagnosing and treating cancer” (OncoMed Pharmaceuticals, Inc., priority 2006, dated 2016).

One assay has as its system UM-C4 colon tumor cells. The experiment in a line: UM-C4 xenograft, combination with fluorouracil. It counts as in vivo, NOD/SCID mice. The following applies: day 46. As for the experimental part:
In certain embodiments, anti-DLL4 antibodies were analyzed in combination with chemotherapy for the ability to reduce growth of UM-C4 colon tumor cells in vivo. Dissociated UM-C4 cells (10,000 per animal) were injected subcutaneously into the right flank region of 6-8 week old NOD/SCID mice. The day after tumor cell injection, animals were injected intraperitoneal (i.p.) with 10 mg/kg murine 21M18 anti-DLL4 antibodies or PBS two times per week for the duration of the experiment with or without concurrent treatment with the anti-metabolite chemotherapy agent fluorouracil (5-FU) administered one time per week. Tumor growth was monitored weekly until growth was detected, after which point tumor growth was measured twice weekly for a total of 8 weeks.

A further assay relates to OMP-C8 tumor cells. The assay is described as follows: OMP-C8 colon tumor xenograft growth prevention, combination with Irinotecan. The assay is classed as in vivo, NOD/SCID mice. The following applies: 21M18 10 mg/kg twice per week; Irinotecan 7.5 mg/kg weekly; n=10 per group. As for the experimental part: In certain embodiments, anti-DLL4 antibodies were tested in combination with the chemotherapeutic Irinotecan. In some embodiments, dissociated OMP-C8 tumor cells (10,000 per animal) were injected subcutaneously into the right flank region of 6-8 week old NOD/SCID mice. The day after tumor cell injection, animals were injected intraperitoneal (i.p.) with 10 mg/kg murine 21M18 anti-DLL4 antibodies or control antibody two times per week for the duration of the experiment with or without concurrent treatment with the chemotherapy agent Irinotecan administered one time per week at a dosage of 7.5 mg/kg. Tumor growth was monitored weekly until growth was detected, after which point tumor growth was measured twice weekly. […] In certain embodiments, humanized H7L2 21M18 anti-DLL4 antibodies were tested in combination with Irinotecan. In some embodiments, dissociated C8 tumor cells (10,000 per animal) were injected subcutaneously into the right flank region of 6-8 week old NOD/SCID mice. […] Tumor growth was monitored weekly until growth was detected, after which point tumor growth was measured twice weekly.

The test system of another assay is C8 cells. The experiment in a line: Established C8 colon tumors, combination with Irinotecan. The following applies: treatment from approximately 60 mm^3; 21M18 10 mg/kg two times per week; Irinotecan 7.5 mg/kg one time per week. The assay is classed as in vivo, NOD/SCID mice. As for the experimental part: In some embodiments, combination anti-DLL4 murine 21M18 and Irinotecan treatment was used to treat established colon tumors. Dissociated C8 cells (10,000 per animal) were injected subcutaneously into the right flank region of 6-8 week old NOD/SCID mice. When the injected cells produced tumors of approximately 60 mm^3, treatment was commenced. Animals were injected intraperitoneal (i.p.) with 10 mg/kg murine 21M18 anti-DLL4 antibodies or a control two times per week for the duration of the experiment with or without concurrent treatment with the chemotherapy agent Irinotecan administered one time per week at a dosage of 7.5 mg/kg.

Another assay deals with human DLL4 (Homo sapiens, UniProt Q9NR61). The experiment in a line: OMP-C11 tumor cell colonies overlaid with 3T3-DLL4 cells, HES1:ATOH1 expression. The following applies: 5 μM. More on the design: expressed in transfected cells; host or cells: 3T3 cells. The assay is classed as cell-based. As for the experimental part:
In some embodiments, mouse lineage-depleted OMP-C11 tumor cell colonies were established using culture conditions known to maintain tumorigenic cells in vitro. These tumor cell colonies were overlaid with 3T3 cells without (3T3) or including human DLL4 (DLL4) overexpressed on the cell surface in the presence or absence of 10 μg/mL murine 21M18 or 5 μM gamma-secretase inhibitor (GSI; i.e. DBZ). A no overlay control was also included.

“Also recorded” adds a separate entry of the source.

Sequence of human DLL4 (Q9NR61 27-685): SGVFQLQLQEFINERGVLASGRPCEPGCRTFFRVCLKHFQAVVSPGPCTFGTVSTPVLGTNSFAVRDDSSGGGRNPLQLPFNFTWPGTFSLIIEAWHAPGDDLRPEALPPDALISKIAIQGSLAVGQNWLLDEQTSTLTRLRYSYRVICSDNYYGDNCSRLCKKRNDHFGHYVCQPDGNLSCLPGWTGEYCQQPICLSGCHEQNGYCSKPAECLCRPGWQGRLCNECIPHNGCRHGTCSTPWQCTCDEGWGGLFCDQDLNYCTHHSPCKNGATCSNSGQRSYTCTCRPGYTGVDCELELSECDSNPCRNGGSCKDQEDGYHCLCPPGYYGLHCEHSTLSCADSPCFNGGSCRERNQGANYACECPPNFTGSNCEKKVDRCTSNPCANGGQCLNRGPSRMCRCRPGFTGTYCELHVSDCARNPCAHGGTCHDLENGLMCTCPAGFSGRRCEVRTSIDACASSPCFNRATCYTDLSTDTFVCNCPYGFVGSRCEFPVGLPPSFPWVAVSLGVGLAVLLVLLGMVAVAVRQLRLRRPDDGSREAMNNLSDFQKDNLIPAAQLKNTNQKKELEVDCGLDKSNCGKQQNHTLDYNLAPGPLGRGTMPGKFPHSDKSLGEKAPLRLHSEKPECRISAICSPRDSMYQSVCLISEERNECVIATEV

For `O=c1[nH]cc(F)c(=O)[nH]1` [5-FU, fluorouracil, reference compound], the “tumor size compared to control” value in the assay on UM-C4 colon tumor cells is “reduced tumor size”.
With `CCc1c2c(nc3ccc(OC(=O)N4CCC(N5CCCCC5)CC4)cc13)-c1cc3c(c(=O)n1C2)COC(=O)[C@]3(O)CC` [Irinotecan], the “tumor growth after treatment cessation on day 56” value in the assay on OMP-C8 tumor cells is reported as “tumor growth continued or accelerated in most animals; also recorded: growth continued after cessation of treatment on day 56 (* arrow) in all but two treated animals”. Moreover, the “growth of established colon tumors” value with C8 cells was “reduced tumor volume”.
As to `C[C@H](NC(=O)Cc1cc(F)cc(F)c1)C(=O)N[C@@H]1C(=O)N(C)c2ccccc2-c2ccccc21` [GSI, reference compound], the “DLL4-induced Notch target gene changes (ratio of HES1:ATOH1)” value at human DLL4 is on record as “inhibited DLL4-induced Notch target gene changes”.
